# Source: patent US8557737B2, “Methods of altering poppy characteristics” (priority 2005, dated 2013)
# Columns and labels:
# Assay type in all cases: in vivo, Papaver somniferum
# poppy crops [1] = test: Example 19: field trial, sulfosulfuron, thifensulfuron-methyl and metsulfuron-methyl, morphine crop; settings: applied at M-LRU and LRU-BE; for PLANT HEIGHT: measured some 10 weeks after last application
# Method: (§1) All trials were conducted on poppy crops. Seed was treated with Thiram (5.6 g of Thiram 800/kg seed) and Apron (4 g/kg) and sown at a rate of approximately 750 g/ha. Fertilisers were applied at sowing. Most commonly, either 50:50 lime:superphosphate/triple superphosphate at 125 kg/ha, or lime:superphosphate at 250 kg/ha, were mixed with seed and drilled at a depth of 15 mm. In the same operation, NPK (nitrogen:phosphorus:potassium), at various rates, was banded 75 mm below the seed, unless otherwise stated. All crops were subjected to herbicide sprays for weed control, fungicide sprays for disease control, insecticide sprays if appropriate and were irrigated as required.
# (§2) All spray applications were made with a precision sprayer, using Silvan Lurmark flat-fan, low-drift nozzles (LD110-0015). Spray equipment was calibrated to deliver 153 L water/ha.
# (§3) At harvest, a 2 m×4 m quadrat was placed in each plot (3 m×6 m, unless otherwise stated) and capsules hand-picked from this area. Capsules were broken up, seed and capsule material separated and weighed. Capsule moisture readings were taken with a moisture meter. Alkaloid yield data were calculated on Pesticide Research Manager (version 5 for Windows) using the formulae below. Briefly, capsule weight was adjusted for moisture to a dry weight, 5% of seed weight was added to this (this amount of capsule material regularly occurs in seed samples after processing) to give a capsule weight per plot. Seed weight was adjusted to 95% of crude weight. Straw weights were determined by multiplying dry capsule weight by 1.3 (estimated amount of stem material in a commercial harvest) and adjusted to 11% moisture. When Lontrel was applied to crops exact capsule and seed weight data were entered. Analyses of variance and a Multiple Range Test were performed on data using Pesticide Research Manager.
# Trial to evaluate applications of sulfosulfuron, thifensulfuron-methyl and metsulfuron-methyl, in a morphine crop. Treatment sprays were applied to crop at mid-late run-up and late-run-up/bud-emergence, respectively. Plant heights were measured some 10 weeks after the last application. Lodging was assessed at capsule harvest.
# poppy crops [2] = test: Example 10: field trial, triasulfuron and metsulfuron-methyl, morphine crop
# Method: as §1, §2
# as §3, with “Manager. Significant differences (P=0.05) between treatments are denoted by different lower case letters adjacent to treatment means in the tables of results.” for “Manager.”
# […] Treatment sprays were applied to crop at ground cover, mid run-up and bud-emergence, respectively.
# poppy crops [3] = test: Example 18: field trial, triasulfuron, mesosulfuron-methyl and metsulfuron-methyl at row cover, mid run-up and early hook, morphine crop; settings: MRU and LRU; for PLANT HEIGHT: 5 weeks after last application; for LODGING: at capsule harvest
# Method: as §1, §2, §3
# Trial to evaluate applications of triasulfuron, mesosulfuron-methyl and metsulfuron-methyl, in a morphine crop. […] Plant heights were measured 5 weeks after last application and lodging at capsule harvest.
# poppy crops [4] = test: Example 16: field trial, metsulfuron-methyl, mesosulfuron-methyl and triasulfuron at row cover and ground cover/early run-up, morphine crop; settings: for PLANT HEIGHT: 5 weeks after last application
# Method: as §1, §2, §3
# Trial to evaluate applications of metsulfuron-methyl (Compound 1), mesosulfuron-methyl (Compound 2) and triasulfuron (Compound 3), in a morphine crop. Treatment sprays were applied to crop at row cover and ground cover/early run-up, respectively. Plant heights were assessed 5 weeks after last application and lodging was assessed at capsule harvest.
# poppy crops [5] = test: Example 17: field trial, triasulfuron, mesosulfuron-methyl and metsulfuron-methyl at early run-up and mid-late run-up, morphine crop; settings: for PLANT HEIGHT: 6 weeks after last application; for LODGING: at capsule harvest
# Method: as §1, §2, §3
# Trial to evaluate applications of triasulfuron, mesosulfuron-methyl and metsulfuron-methyl, in a morphine crop. Treatment sprays were applied to with crop at early run-up and mid-late run-up, respectively. Plant heights were measured on 6 weeks after last application and lodging was assessed at capsule harvest.
# [6] = COMPOUND 3 263 MG/HA + PULSE .2 % V/V at GC and RU
# [7] = COMPOUND 3 525 MG/HA + PULSE .2 % V/V at GC (one application)
# [8] = COMPOUND 3 525 MG/HA + PULSE .2 % V/V at GC and RU
# [9] = Trt 3: COMPOUND 3 75 MG/HA + PULSE .2% V/V at RC
# [10] = Trt 4: COMPOUND 3 150 MG/HA + PULSE .2% V/V at RC
# [11] = Trt 3: COMPOUND 3 75 MG/HA + PULSE .2% V/V at RC and GC/ERU
# [12] = Trt 4: COMPOUND 3 150 MG/HA + PULSE .2% V/V at RC and GC/ERU
# [13] = Trt 3: COMPOUND 3 75 MG/HA + PULSE .2% V/V at ERU and M-LRU
# [14] = Trt 4: COMPOUND 3 150 MG/HA + PULSE .2% V/V at ERU and M-LRU
# [15] = 1.35 G/HA + ACTIVATOR .125 % V/V
# [16] = 4.5 G/HA + ACTIVATOR .125 % V/V
# [17] = 450 MG/HA + ACTIVATOR .125 % V/V
smiles,measurement,setting,value
"CCS(=O)(=O)c1nc2ccccn2c1S(=O)(=O)NC(=O)Nc1nc(OC)cc(OC)n1 [Compound 5, sulfosulfuron]",CAPSULE/SEED RATIO,poppy crops [1]; 60 MG/HA + SWIFT 1 % V/V,2.324
same,CROP WEIGHT,poppy crops [1]; 60 MG/HA + SWIFT 1 % V/V,.96 t/ha
same,MORPHINE,poppy crops [1]; 60 MG/HA + SWIFT 1 % V/V,19.19 kg/ha
same,SEED,poppy crops [1]; 60 MG/HA + SWIFT 1 % V/V,220 kg/ha
same,STRAW,poppy crops [1]; 60 MG/HA + SWIFT 1 % V/V,738 kg/ha
same,STRAW MORPHINE %,poppy crops [1]; 60 MG/HA + SWIFT 1 % V/V,2.6%
same,PLANT HEIGHT,poppy crops [1]; 60 MG/HA + SWIFT 1 % V/V,73 cm
same,CAPSULE/SEED RATIO,poppy crops [1]; 180 MG/HA + SWIFT 1 % V/V,2.898
same,CROP WEIGHT,poppy crops [1]; 180 MG/HA + SWIFT 1 % V/V,1.15 t/ha
same,MORPHINE,poppy crops [1]; 180 MG/HA + SWIFT 1 % V/V,22.90 kg/ha
same,SEED,poppy crops [1]; 180 MG/HA + SWIFT 1 % V/V,223 kg/ha
same,STRAW,poppy crops [1]; 180 MG/HA + SWIFT 1 % V/V,931 kg/ha
same,STRAW MORPHINE %,poppy crops [1]; 180 MG/HA + SWIFT 1 % V/V,2.46%
same,PLANT HEIGHT,poppy crops [1]; 180 MG/HA + SWIFT 1 % V/V,75 cm
same,CAPSULE/SEED RATIO,poppy crops [1]; 600 MG/HA + SWIFT 1 % V/V,4.564
same,CROP WEIGHT,poppy crops [1]; 600 MG/HA + SWIFT 1 % V/V,0.89 t/ha
same,MORPHINE,poppy crops [1]; 600 MG/HA + SWIFT 1 % V/V,20.74 kg/ha
same,SEED,poppy crops [1]; 600 MG/HA + SWIFT 1 % V/V,118 kg/ha
same,STRAW,poppy crops [1]; 600 MG/HA + SWIFT 1 % V/V,774 kg/ha
same,STRAW MORPHINE %,poppy crops [1]; 600 MG/HA + SWIFT 1 % V/V,2.68%
same,PLANT HEIGHT,poppy crops [1]; 600 MG/HA + SWIFT 1 % V/V,80 cm
"COc1nc(C)nc(NC(=O)NS(=O)(=O)c2ccccc2OCCCl)n1 [Compound 3, triasulfuron]",CAPSULE/SEED RATIO,poppy crops [2]; [6],3.170 b
same,CROP WEIGHT,poppy crops [2]; [6],0.79 d t/ha
same,HEIGHT,poppy crops [2]; [6],71.0 cm·days
same,MORPHINE,poppy crops [2]; [6],13.17 d kg/ha
same,SEED,poppy crops [2]; [6],141 c kg/ha
same,STRAW,poppy crops [2]; [6],644 d kg/ha
same,STRAW MORPHINE,poppy crops [2]; [6],2.03 b %
same,CAPSULE/SEED RATIO,poppy crops [2]; [7],1.762 c
same,CROP WEIGHT,poppy crops [2]; [7],1.40 c t/ha
same,HEIGHT,poppy crops [2]; [7],75.6 c cm
same,MORPHINE,poppy crops [2]; [7],20.55 b kg/ha
same,SEED,poppy crops [2]; [7],408 b kg/ha
same,STRAW,poppy crops [2]; [7],992 b kg/ha
same,STRAW MORPHINE,poppy crops [2]; [7],2.06 b %
same,CAPSULE/SEED RATIO,poppy crops [2]; [8],1.338 days
same,CROP WEIGHT,poppy crops [2]; [8],0.17 e t/ha
same,HEIGHT,poppy crops [2]; [8],55.0 e cm
same,MORPHINE,poppy crops [2]; [8],1.99 e kg/ha
same,SEED,poppy crops [2]; [8],60 c kg/ha
same,STRAW,poppy crops [2]; [8],113 e kg/ha
same,STRAW MORPHINE,poppy crops [2]; [8],1.76 c %
same,CAPS/SEED RATIO,poppy crops [3]; [9],1.358 b
same,CROP WEIGHT,poppy crops [3]; [9],3.43 a t/ha
same,MORPHINE,poppy crops [3]; [9],51.88 a kg/ha
same,SEED,poppy crops [3]; [9],1161 b kg/ha
same,STRAW,poppy crops [3]; [9],2217 a kg/ha
same,STRAW MORPHINE,poppy crops [3]; [9],2.33 a %
same,PLANT HEIGHT,poppy crops [3]; [9],93.0 c cm
same,LODGING,poppy crops [3]; [9],2.2 a %
same,CAPS/SEED RATIO,poppy crops [3]; [10],2.664 a
same,CROP WEIGHT,poppy crops [3]; [10],2.32 c t/ha
same,MORPHINE,poppy crops [3]; [10],37.62 c kg/ha
same,SEED,poppy crops [3]; [10],482 c kg/ha
same,STRAW,poppy crops [3]; [10],1797 b kg/ha
same,STRAW MORPHINE,poppy crops [3]; [10],2.09 c %
same,PLANT HEIGHT,poppy crops [3]; [10],81.4 cm·days
same,LODGING,poppy crops [3]; [10],2.6 a %
same,CAPS/SEED RATIO,poppy crops [4]; [11],1.259 b
same,CROP WEIGHT,poppy crops [4]; [11],3.47 b t/ha
same,MORPHINE,poppy crops [4]; [11],49.16 a kg/ha
same,SEED,poppy crops [4]; [11],1233 c kg/ha
same,STRAW,poppy crops [4]; [11],2211 a kg/ha
same,STRAW MORPHINE,poppy crops [4]; [11],2.21 a %
same,PLANT HEIGHT,poppy crops [4]; [11],103.4 b cm
same,CAPS/SEED RATIO,poppy crops [4]; [12],1.959 a
same,CROP WEIGHT,poppy crops [4]; [12],2.18 c t/ha
same,MORPHINE,poppy crops [4]; [12],32.34 c kg/ha
same,SEED,poppy crops [4]; [12],581 d kg/ha
same,STRAW,poppy crops [4]; [12],1589 c kg/ha
same,STRAW MORPHINE,poppy crops [4]; [12],2.03 b %
same,PLANT HEIGHT,poppy crops [4]; [12],88.6 c cm
same,CAPS/SEED RATIO,poppy crops [5]; [13],3.677 c
same,CROP WEIGHT,poppy crops [5]; [13],2.79 b t/ha
same,MORPHINE,poppy crops [5]; [13],51.94 a kg/ha
same,SEED,poppy crops [5]; [13],451 b kg/ha
same,STRAW,poppy crops [5]; [13],2299 a kg/ha
same,STRAW MORPHINE,poppy crops [5]; [13],2.26 b %
same,PLANT HEIGHT,poppy crops [5]; [13],100.2 bc cm
same,LODGING,poppy crops [5]; [13],1.6 b %
same,CAPS/SEED RATIO,poppy crops [5]; [14],6.016 b
same,CROP WEIGHT,poppy crops [5]; [14],1.71 c t/ha
same,MORPHINE,poppy crops [5]; [14],25.78 c kg/ha
same,SEED,poppy crops [5]; [14],175 c kg/ha
same,STRAW,poppy crops [5]; [14],1331 c kg/ha
same,STRAW MORPHINE,poppy crops [5]; [14],1.93 d %
same,PLANT HEIGHT,poppy crops [5]; [14],90.4 cm·days
same,LODGING,poppy crops [5]; [14],11.9 a %
"COC(=O)c1sccc1S(=O)(=O)NC(=O)Nc1nc(C)nc(OC)n1 [Compound 4, thifensulfuron-methyl]",CAPSULE/SEED RATIO,poppy crops [1]; [15],3.299
same,CROP WEIGHT,poppy crops [1]; [15],0.22 t/ha
same,MORPHINE,poppy crops [1]; [15],4.10 kg/ha
same,SEED,poppy crops [1]; [15],39 kg/ha
same,STRAW,poppy crops [1]; [15],184 kg/ha
same,STRAW MORPHINE %,poppy crops [1]; [15],2.23%
same,PLANT HEIGHT,poppy crops [1]; [15],65 cm
same,CAPSULE/SEED RATIO,poppy crops [1]; [16],0
same,CROP WEIGHT,poppy crops [1]; [16],0 t/ha
same,MORPHINE,poppy crops [1]; [16],0 kg/ha
same,SEED,poppy crops [1]; [16],0 kg/ha
same,STRAW,poppy crops [1]; [16],0 kg/ha
same,STRAW MORPHINE %,poppy crops [1]; [16],0%
same,PLANT HEIGHT,poppy crops [1]; [16],0 cm
same,CAPSULE/SEED RATIO,poppy crops [1]; [17],5.209
same,CROP WEIGHT,poppy crops [1]; [17],0.87 t/ha
same,MORPHINE,poppy crops [1]; [17],16.19 kg/ha
same,SEED,poppy crops [1]; [17],103 kg/ha
same,STRAW,poppy crops [1]; [17],771 kg/ha
same,STRAW MORPHINE %,poppy crops [1]; [17],2.10%
same,PLANT HEIGHT,poppy crops [1]; [17],78 cm
